Patent US10639304B2, “Kinase inhibitors” (priority 2013, dated 2020)

How the values were obtained:
Src = target: T1, Src (Homo sapiens, UniProt P12931); assay: Src phosphorylation in K562 cells, Western blotting; type: cell-based; details: FIGS. 9 and 10
T1 construct: reduced the levels of phosphorylated Src in K562 cells; endogenous in cells; host or cells: K562

T315I mutant Bcr-Abl = target: T2, T315I mutant Bcr-Abl (Homo sapiens, UniProt P00519, T315I); assay: Bcr-Abl phosphorylation in K562 cells, Western blotting; type: cell-based; details: in the presence of Gleevec, FIGS. 5 and 6
T2 construct: K562 cells that express the T315I mutant Bcr-Abl; BCR (fusion partner, P11274 N-terminal part); endogenous in cells; host or cells: K562 (Gleevec-resistant); the other entry of the earlier key: BCR (P11274, Breakpoint cluster region protein)

Lyn = target: T3, Lyn (Homo sapiens, UniProt P07948); assay: Lyn phosphorylation in K562 cells, Western blotting; type: cell-based; details: FIG. 11
T3 construct: K562 cells were plated in 10 cm dishes; endogenous in cells; host or cells: K562

Yes = target: T4, Yes (Homo sapiens, UniProt P07947); assay: Yes phosphorylation in K562 cells, Western blotting; type: cell-based; details: FIG. 11
T4 construct: K562 cells were plated in 10 cm dishes; endogenous in cells; host or cells: K562

LCK = target: T5, LCK (Homo sapiens, UniProt P06239); assay: LCK phosphorylation in K562 cells, Western blotting; type: cell-based; details: FIG. 11
T5 construct: K562 cells were plated in 10 cm dishes; endogenous in cells; host or cells: K562

[1] = test system: Gleevec resistant K562 cells; assay: Cytotoxicity in Gleevec resistant K562 cells (Cell Titer-Blue); type: cell-based; details: for IC50: Homo sapiens, K562
Method: Hela (established from epithelioid cervical carcinoma), were purchased from the American Type Culture Collection (ATCC, Manassas, Va.). SN12C and ACHN cells were provided by Dr. Charles Sawyers. […] Normal lymphocyte 9093 was purchased from ATCC. K562 and normal lymphocytes were maintained in RPMI media (Life Technologies) supplemented with 20% fetal bovine serum (FBS). […] All cells were maintained at 37° C. under a humidified atmosphere of 95% air and 5% CO2.
(§1) The cells were seeded at an initial density of 50,000 cells per well in 100 μl of cell culture media constituted with or without drugs at increasing doses ranging from 1 to 10^7 fold. The assays were performed in 96-well cell culture plates which were maintained at 37° C. in 5% CO2 atmosphere for 24 h, 48 h, 72 h and 96 h. At the end of each incubation point; cell viability was measured by Cell Titer-Blue® Assay. The measurements were then expressed as the percentage of viable cells compared to the survival of respective control groups (untreated cells) defined as the maximum cell viability. The data obtained was further analyzed using Prism nonlinear regression software (Graphpad Software) for the curve-fitting and determination of IC50 values.

STAT5 = STAT5 phosphorylation in K562 cells, Western blotting; type: cell-based; details: FIG. 7
Crkl = Crkl phosphorylation in K562 cells, Western blotting; type: cell-based; details: FIG. 8
[2] = test system: PARP cleavage in Gleevec-resistant CML cell lines; assay: PARP cleavage (apoptosis marker), Western blotting; type: cell-based; details: FIG. 4
[3] = test system: leukemic cells derived from ALL, AML, CML and CLL; assay: Initial analysis of cytotoxicity in leukemic cells; type: cell-based; details: for toxicity to the leukemic cells tested: initial analysis of 12 compounds ALD-1 through ALD-12; for anti-leukemic activity: structure-activity summary
Method: as §1

Bcr-Abl = details: in vitro, more potent than imatinib; cited from earlier work
[4] = test system: BV173-GFP, a Gleevec resistant chronic myeloid leukemic cells; assay: Preclinical efficacy, BV173-GFP leukemia in NSG-B2m mice; type: in vivo; details: up to 250 mg/kg intraperitoneal for 5 weeks
Method: Two days after leukemia cell injection, the mice received intraperitoneal treatments of DMSO, or ALD-10 in DMSO. Following injection cells, the mice were randomized into two groups (6/group) to receive DMSO, or ALD-10. The mice received up to 250 mg/kg of ALD10 for 5 weeks. […] The median survival for ALD-10 and DMSO treated mice was 42 and 39 days, respectively.

T1 sequence (P12931 whole entry): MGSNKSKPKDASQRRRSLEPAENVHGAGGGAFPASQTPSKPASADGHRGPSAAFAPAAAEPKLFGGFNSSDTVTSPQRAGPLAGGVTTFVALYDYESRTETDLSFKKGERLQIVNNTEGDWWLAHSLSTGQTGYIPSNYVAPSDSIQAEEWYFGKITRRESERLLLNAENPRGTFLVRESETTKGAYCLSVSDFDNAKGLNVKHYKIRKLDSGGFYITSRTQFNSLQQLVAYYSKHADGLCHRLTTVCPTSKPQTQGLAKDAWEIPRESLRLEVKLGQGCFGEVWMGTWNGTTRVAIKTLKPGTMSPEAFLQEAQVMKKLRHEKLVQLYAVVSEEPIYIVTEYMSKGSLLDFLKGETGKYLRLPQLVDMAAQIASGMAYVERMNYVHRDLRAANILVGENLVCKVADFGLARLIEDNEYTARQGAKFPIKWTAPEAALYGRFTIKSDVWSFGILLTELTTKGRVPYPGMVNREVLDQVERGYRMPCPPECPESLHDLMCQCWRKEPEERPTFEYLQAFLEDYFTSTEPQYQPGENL
T3 sequence (P07948 whole entry): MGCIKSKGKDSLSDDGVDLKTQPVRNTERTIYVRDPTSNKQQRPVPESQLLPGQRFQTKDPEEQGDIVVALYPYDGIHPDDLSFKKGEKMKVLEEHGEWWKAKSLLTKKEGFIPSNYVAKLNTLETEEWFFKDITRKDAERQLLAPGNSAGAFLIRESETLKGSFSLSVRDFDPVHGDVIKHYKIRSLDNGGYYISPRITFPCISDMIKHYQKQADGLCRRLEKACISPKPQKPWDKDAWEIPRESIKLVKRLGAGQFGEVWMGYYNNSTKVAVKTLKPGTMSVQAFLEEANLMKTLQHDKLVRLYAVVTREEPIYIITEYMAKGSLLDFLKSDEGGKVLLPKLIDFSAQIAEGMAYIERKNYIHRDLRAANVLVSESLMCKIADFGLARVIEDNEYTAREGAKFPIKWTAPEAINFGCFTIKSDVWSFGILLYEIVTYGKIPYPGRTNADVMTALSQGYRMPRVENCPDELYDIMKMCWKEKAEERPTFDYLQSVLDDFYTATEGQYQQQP
T5 sequence (P06239 whole entry): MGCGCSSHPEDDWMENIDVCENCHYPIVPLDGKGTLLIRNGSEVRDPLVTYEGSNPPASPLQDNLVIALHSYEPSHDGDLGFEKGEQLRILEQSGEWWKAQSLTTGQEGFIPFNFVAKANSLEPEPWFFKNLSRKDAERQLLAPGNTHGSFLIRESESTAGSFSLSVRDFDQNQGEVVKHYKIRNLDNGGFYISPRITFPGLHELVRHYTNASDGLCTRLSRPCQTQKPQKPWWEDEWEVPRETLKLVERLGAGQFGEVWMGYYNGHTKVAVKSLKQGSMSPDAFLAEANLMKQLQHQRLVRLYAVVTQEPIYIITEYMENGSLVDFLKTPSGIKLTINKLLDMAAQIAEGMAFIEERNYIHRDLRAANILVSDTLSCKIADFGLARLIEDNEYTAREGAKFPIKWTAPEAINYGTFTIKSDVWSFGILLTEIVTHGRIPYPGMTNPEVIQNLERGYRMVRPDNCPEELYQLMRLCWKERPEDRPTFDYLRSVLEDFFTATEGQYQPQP
T4 sequence (P07947 whole entry): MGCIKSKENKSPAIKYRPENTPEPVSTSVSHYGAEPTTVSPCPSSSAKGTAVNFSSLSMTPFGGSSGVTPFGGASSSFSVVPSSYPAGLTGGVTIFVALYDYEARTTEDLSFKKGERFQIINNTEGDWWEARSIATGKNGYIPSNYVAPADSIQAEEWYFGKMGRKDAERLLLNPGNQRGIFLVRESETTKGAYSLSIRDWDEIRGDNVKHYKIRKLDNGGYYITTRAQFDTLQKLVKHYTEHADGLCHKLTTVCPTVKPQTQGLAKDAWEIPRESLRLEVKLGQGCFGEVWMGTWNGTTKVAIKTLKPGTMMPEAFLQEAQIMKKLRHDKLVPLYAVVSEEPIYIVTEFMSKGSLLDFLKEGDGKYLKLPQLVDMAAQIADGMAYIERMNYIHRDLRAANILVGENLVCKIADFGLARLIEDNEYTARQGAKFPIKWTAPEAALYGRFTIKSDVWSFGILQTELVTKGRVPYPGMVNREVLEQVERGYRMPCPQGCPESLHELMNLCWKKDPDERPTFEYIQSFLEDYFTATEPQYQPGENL

CCc1cc2cc3c(cc2nc1SCC(=O)Nc1ccccc1OC)OCCO3 [ALD-12, 2-(8-ethyl-2,3-dihydro-[1,4]dioxino[2,3-g]quinolin-7-ylsulfanyl)-N-(2-methoxy-phenyl)-acetamide]
phosphorylation of Src (Src): inhibited
phosphorylation of Bcr-Abl Kinase (T315I mutant Bcr-Abl): block phosphorylation
phosphorylation of Lyn (Lyn): significantly inhibited
phosphorylation of Yes (Yes): significantly inhibited
phosphorylation of Lck (LCK): significantly inhibited
IC50 [1]: 69.7 nM
STAT5 phosphorylation (STAT5): inhibited
CrkL phosphorylation (Crkl): inhibited
PARP cleavage (apoptotic cell death) [2]: induction of PARP cleavage
toxicity to the leukemic cells tested [3]: toxic
anti-leukemic activity [3]: anti-leukemic activity

CCc1cc2cc3c(cc2nc1SCC(=O)Nc1ccc(OC)cc1)OCCO3 [ALD-11, 2-(8-Ethyl-2,3-dihydro-[1,4]dioxino[2,3-g]quinolin-7-ylsulfanyl)-N-(4-methoxy-phenyl)-acetamide]
phosphorylation of Src (Src): did not affect
phosphorylation of Lyn (Lyn): not
phosphorylation of Lck (LCK): not
cytotoxicity (in words) ([1]; Gleevec resistant K562 cells, FIG. 1): not cytotoxic
STAT5 phosphorylation (STAT5): did not affect
CrkL phosphorylation (Crkl): did not affect
PARP cleavage (apoptotic cell death) [2]: did not reveal PARP cleavage
toxicity to the leukemic cells tested [3]: non-toxic
anti-leukemic activity [3]: inactive

CCc1cc2cc3c(cc2nc1SCC(=O)Nc1ccc(OC)cc1OC)OCCO3 [ALD-4, N-(2,4-Dimethoxy-phenyl)-2-(8-ethyl-2,3-dihydro-[1,4]dioxino[2,3-g]quinolin-7-ylsulfanyl)-acetamide]
phosphorylation of Src (Src): inhibited
phosphorylation of Bcr-Abl Kinase (T315I mutant Bcr-Abl): block phosphorylation
cytotoxicity to Gleevec resistant CML (GRCML) ([1]; Gleevec resistant CML, cell line not named): highly cytotoxic
toxicity to the leukemic cells tested [3]: toxic
anti-leukemic activity [3]: anti-leukemic activity

Cc1cn(-c2cc(NC(=O)c3ccc(C)c(Nc4nccc(-c5cccnc5)n4)c3)cc(C(F)(F)F)c2)cn1 [Nilotinib]
affinity for the ATP binding site on Bcr-Abl relative to imatinib (Bcr-Abl): up to 50 times

CCc1cc2cc3c(cc2nc1SCC(=O)Nc1ccccc1C)OCCO3 [ALD-10, 2-(8-Ethyl-2,3-dihydro-[1,4]dioxino[2,3-g]quinolin-7-ylsulfanyl)-N-o-tolyl-acetamide]
phosphorylation of Src (Src): inhibited
phosphorylation of Bcr-Abl Kinase (T315I mutant Bcr-Abl): block phosphorylation
phosphorylation of Lyn (Lyn): significantly inhibited
phosphorylation of Yes (Yes): significantly inhibited
phosphorylation of Lck (LCK): significantly inhibited
activity of the mice compared to DMSO treated mice [4]: considerably more active
liver tumor mass compared to DMSO treated mice [4]: reduced liver tumor mass
median survival ([4]; DMSO 39 days, Log-rank P=0.0036, Gehan-Breslow-Wilcoxon P=0.0045): 42 days
survival (Kaplan-Meier) ([4]; DMSO treated 40 days): 48 days
IC50 [1]: 74.6 nM
STAT5 phosphorylation (STAT5): inhibited
CrkL phosphorylation (Crkl): inhibited
PARP cleavage (apoptotic cell death) [2]: induction of PARP cleavage
toxicity to the leukemic cells tested [3]: toxic
anti-leukemic activity [3]: anti-leukemic activity

COC(=O)c1ccc(NC(=O)CSc2nc3cc4c(cc3cc2C)OCCO4)cc1 [ALD-1, 4-[2-(8-Methyl-2,3-dihydro-[1,4]dioxino[2,3-g]quinolin-7-ylsulfanyl)-acetylamino]-benzoic acid methyl ester]
toxicity to the leukemic cells tested [3]: non-toxic
